Reference: EPA's ToxRefDB 2

Tests used:
mouse [1] = details: Combined chronic toxicity/carcinogenicity; b6c3f1; Oral; Feed; dose end: 2 year; group: systemic; systemic / in life observation / body weight / body weight
rat [2] = details: Multigenerational reproductive toxicity study, sprague dawley, Oral, Feed, dose end: 2 generation
dog = details: Chronic toxicity, beagle, Oral, [Not Specified], dose end: 52 week, group: systemic
rat [3] = details: Combined chronic toxicity/carcinogenicity; sprague dawley; Oral; Feed; dose end: 104 week; group: systemic; systemic / pathology microscopic / adrenal gland / hypertrophy + systemic / pathology microscopic / skeletal muscle / malformation + …
rat [4] = details: Subchronic oral toxicity in rodents, sprague dawley, Feed, dose end: 13 week, group: systemic, systemic / in life observation / body weight / body weight + systemic / in life observation / body weight / body weight gain + systemic / in…
rat [5] = details: Prenatal developmental toxicity study, sprague dawley, Oral, Gavage/Intubation, dose end: 15 GD
rat [6] = details: Prenatal developmental toxicity study, sprague dawley, Oral, Gavage/Intubation, dose end: 5 GD, group: developmental
rat [7] = details: Subchronic oral toxicity in rodents, fischer, Feed, dose end: 13 week, group: systemic
mouse [8] = details: Carcinogenicity, cd1, Oral, Feed, dose end: 80 week, group: systemic
rat [9] = details: Prenatal developmental toxicity study; wistar; Oral; Feed; dose end: 15 GD; group: maternal; systemic / in life observation / body weight / body weight gain + systemic / in life observation / food consumption / food consumption
rat [10] = details: Combined chronic toxicity/carcinogenicity; fischer; Oral; Feed; dose end: 104 week; group: systemic; systemic / organ weight / skeletal muscle / absolute + systemic / organ weight / skeletal muscle / relative to body weight + systemic / …
rat [11] = details: Prenatal developmental toxicity study, sprague dawley, Oral, Gavage/Intubation, dose end: 15 GD; remark: listed apart in the source
mouse [12] = details: Subchronic oral toxicity in rodents, b6c3f1, Feed, dose end: 13 week, group: systemic
rat [13] = details: Combined chronic toxicity/carcinogenicity, fischer, Oral, Feed, dose end: 2 year, group: systemic
[14] = group: offspring, systemic / in life observation / body weight / offspring (pup) weight
[15] = group: parental, systemic / in life observation / body weight / body weight + systemic / in life observation / body weight / body weight gain + systemic / in…
[16] = systemic / clinical chemistry / alanine aminotransferase (alt/sgpt) / alanine aminotransferase (alt/sgpt) + systemic / clinical chemistry / …
[17] = systemic / organ weight / ovary / absolute + systemic / organ weight / uterus / absolute
[18] = group: developmental, developmental / developmental malformation / bone / ossification sites + developmental / developmental malformation / general / [other] + …
[19] = group: maternal, systemic / in life observation / body weight / body weight gain
[20] = group: maternal, systemic / in life observation / body weight / body weight gain + reproductive / reproductive performance / postimplantation loss / …
[21] = developmental / developmental malformation / bone / ossification sites + developmental / developmental malformation / general / [other] + …
[22] = systemic / in life observation / body weight / body weight gain
[23] = systemic / in life observation / body weight / body weight gain + systemic / in life observation / mortality / mortality + systemic / in …
[24] = systemic / in life observation / body weight / body weight + systemic / pathology microscopic / liver / hypertrophy
[25] = systemic / in life observation / body weight / body weight gain + systemic / organ weight / brain / absolute + systemic / pathology …
[26] = group: developmental, developmental / developmental malformation / diaphragm / diaphragmatic thinning
[27] = group: developmental, developmental / developmental malformation / diaphragm / diaphragmatic thinning + systemic / in life observation / body weight / fetal …
[28] = group: maternal, systemic / in life observation / body weight / body weight + systemic / in life observation / clinical signs / salivation + systemic / in …
[29] = systemic / pathology microscopic / eye / retinopathy
[30] = systemic / pathology microscopic / thyroid gland / adenoma/carcinoma combined + systemic / pathology microscopic / thyroid gland / carcinoma…

Compound `CN(C)C(=S)[S-].CN(C)C(=S)[S-].[Zn+2]` [Ziram] has an LEL (mouse [1]) of 122 mg/kg/day, an LOAEL (mouse [1]) of 122 mg/kg/day and an NEL (mouse [1]) of less than 122 mg/kg/day. It also gave an NOAEL (mouse [1]) of less than 122 mg/kg/day, an LEL (rat [2]; [14]) of 42.7 mg/kg/day and an LOAEL (rat [2]; [14]) of 42.7 mg/kg/day. The NEL (rat [2]; [14]) was 16.7 mg/kg/day, the NOAEL (rat [2]; [14]) was 16.7 mg/kg/day and the LEL (rat [2]; [15]) was 37.5 mg/kg/day. For the same compound, the LOAEL (rat [2]; [15]) was 37.5 mg/kg/day, the NEL (rat [2]; [15]) was 14.8 mg/kg/day and the NOAEL (rat [2]; [15]) was 14.8 mg/kg/day. The LOAEL (dog; [16]) was 6.6 mg/kg/day, the NOAEL (dog; [16]) was 1.6 mg/kg/day and the LEL (dog; [17]) was 1.9 mg/kg/day. For the same compound, the NEL (dog; [17]) was less than 1.9 mg/kg/day, the LEL (rat [3]) was 2.5 mg/kg/day and the LOAEL (rat [3]) was 2.5 mg/kg/day. For the same compound, the NEL (rat [3]) was less than 2.5 mg/kg/day, the NOAEL (rat [3]) was less than 2.5 mg/kg/day and the LEL (rat [4]) was 21.4 mg/kg/day. It also gave an LOAEL (rat [4]) of 21.4 mg/kg/day, an NEL (rat [4]) of 7.4 mg/kg/day and an NOAEL (rat [4]) of 7.4 mg/kg/day. The LOAEL (rat [5]; [18]) was greater than 100 mg/kg/day, the NEL (rat [5]; [18]) was 12.5 mg/kg/day and the NOAEL (rat [5]; [18]) was no less than 100 mg/kg/day. The LEL (rat [5]; group: developmental, systemic / in life observation / body weight / fetal weight) was 25 mg/kg/day, the LEL (rat [5]; [19]) was 12.5 mg/kg/day and the NEL (rat [5]; [19]) was less than 12.5 mg/kg/day. The LOAEL (rat [5]; [20]) was greater than 100 mg/kg/day, the NOAEL (rat [5]; [20]) was no less than 100 mg/kg/day and the LOAEL (rat [6]; [21]) was greater than 100 mg/kg/day. For the same compound, the NEL (rat [6]; [21]) was 25 mg/kg/day, the NOAEL (rat [6]; [21]) was no less than 100 mg/kg/day and the LEL (rat [6]; systemic / in life observation / body weight / fetal weight) was 50 mg/kg/day. For the same compound, the LEL (rat [7]; [22]) was 31.3 mg/kg/day, the LOAEL (rat [7]; [23]) was greater than 313 mg/kg/day and the NEL (rat [7]; [23]) was 16.3 mg/kg/day. For the same compound, the NOAEL (rat [7]; [23]) was no less than 313 mg/kg/day, the LEL (mouse [8]; [24]) was 3 mg/kg/day and the NEL (mouse [8]; [24]) was less than 3 mg/kg/day. The LOAEL (mouse [8]; [25]) was 27 mg/kg/day, the NOAEL (mouse [8]; [25]) was 9 mg/kg/day and the LEL (rat [9]) was 12.5 mg/kg/day. It also gave an LOAEL (rat [9]) greater than 25 mg/kg/day, an NEL (rat [9]) of 6.25 mg/kg/day and an NOAEL (rat [9]) of no less than 25 mg/kg/day. It also gave an LEL (rat [10]) of 6.9 mg/kg/day, an LOAEL (rat [10]) of 6.9 mg/kg/day and an NEL (rat [10]) of 0.7 mg/kg/day. It also gave an NOAEL (rat [10]) of 0.7 mg/kg/day, an LEL (rat [11]; [26]) of 16 mg/kg/day and an LOAEL (rat [11]; [26]) of 16 mg/kg/day. It also gave an NEL (rat [11]; [27]) of 4 mg/kg/day, an NOAEL (rat [11]; [27]) of 4 mg/kg/day and an LEL (rat [11]; [28]) of 16 mg/kg/day. For the same compound, the LOAEL (rat [11]; [28]) was 16 mg/kg/day, the NEL (rat [11]; [28]) was 4 mg/kg/day and the NOAEL (rat [11]; [28]) was 4 mg/kg/day. The LEL (mouse [12]; [22]) was 80 mg/kg/day, the NEL (mouse [12]; [22]) was less than 80 mg/kg/day and the LOAEL (mouse [12]; [23]) was greater than 1590 mg/kg/day. For the same compound, the NOAEL (mouse [12]; [23]) was no less than 1590 mg/kg/day, the LEL (rat [13]; [29]) was 13 mg/kg/day and the NEL (rat [13]; [29]) was less than 13 mg/kg/day. It also gave an LOAEL (rat [13]; [30]) greater than 22 mg/kg/day and an NOAEL (rat [13]; [30]) of no less than 22 mg/kg/day.
